{"source": "patent US12439922B2", "about": "“Plant-based chemicals for Varroa mite control” (priority 2019, dated 2025)", "key": {"[1]": {"tested_on": "Varroa mites (Varroa destructor)", "assay": "LD50 determination for mites (topical application, mortality at 24 h)", "assay_type": "in vivo", "settings": "for estimated LD50: max. dose 3200 ng/mite in three trials; for Mean LD50 / LD50 1 / LD50 2 / LD50 3: topical, mortality at 24 h; for Mean LD50: mean±se of three trials; for LD50 1: trial 1; for LD50 2: trial 2; for LD50 3: trial 3", "procedure": "Varroa mites (Varroa destructor) were collected from colonies at the Michigan State University apiary in East Lansing, MI. Mites were collected using the “sugar shake” method (Macedo and Ellis 2002). Approximately 350 bees were brushed from brood frames into a plastic basin and then poured into 473 ml wide-mouth Mason jars fitted with screen lids (3 mm×3 mm mesh). Approximately 8 g powdered sugar were sifted through the screen and the jar was shaken for 20 seconds and let to sit for 3 minutes. The mites then fell through the screen onto a piece of paper. Mites were collected, and the sugar dusts were washed off using moistened paintbrushes. Mites were kept in Petri-dishes with worker pupae and transported to the campus lab for LD50 determination.\nChemicals were dissolved in acetone serially diluted to obtain appropriate dosages. Each mite was topically applied with 0.2 μl of acetone containing the tested chemicals. A triplicate of 10 mites per dose were then housed in a Petri dish (diameter 3 cm, 34.5° C., RH 75%) with one white-eyed worker pupa as food. Mortality was assessed at 24 h. Mites were considered dead if no movement is observed in response to prodding with a metal probe.\n(§1) For both bee and mite mortality data, control mortality was used to correct the mortality of different doses of drugs (Abbott, 1925). A Log-Probit line was fitted for each treatment from which the LD50 values and 95% confidence intervals were calculated using the R statistical package (R Development Core Team 2008)."}, "bees": {"tested_on": "bees", "assay_type": "in vivo, Apis mellifera", "procedure": "(§2) Picrotoxinin was dissolved in acetone (0.0064 gram picrotoxinin in 1.6 ml acetone=4 ug/ul) and then serially diluted to various doses. A selected amount of picrotoxinin was applied to each bee after CO2 anesthetization. Then, the bees were inoculated with Varroa mites (10 mites on 10 bees per dish). This procedure was employed to ensure that the mites were obtaining the chemical from the bees.\n(§3) The numbers of dead Varroa mites and dead bees were recorded after 2, 4 and 24 hours."}, "honey bees (foragers)": {"tested_on": "honey bees (foragers)", "assay": "LD50 determination for bees (topical application to foragers, mortality observed for 2 days)", "assay_type": "in vivo, Apis mellifera", "procedure": "Honey bees were obtained from the MSU apiary. Forty to fifty colonies were routinely kept during summer months for experiments. Foragers were used for LD50 determination because they are the most sensitive to toxins.\nForagers were collected when they were returning to the hive by an insect vacuum. Foragers were briefly anesthetized with carbon dioxide and individual forager was dosed with 4 μl of acetone containing various dosages of insecticide (at least 5 doses per drug) and a control with 4 μl of acetone only. Bees then were caged together (a triplicate of 10 bees per dose per colony) and their mortality observed for 2 days (acute toxicity) in an incubator (34.5° C., RH 75%).\nas §1"}, "Varroa mites": {"tested_on": "Varroa mites", "assay": "Picrotoxinin applied to bees inoculated with Varroa mites: dead mites", "assay_type": "in vivo, Varroa destructor", "settings": "for 24-hour dead mite / 4-hour dead mite / 2-hour dead mite: 10 mites on 10 bees per dish", "procedure": "as §2, §3"}, "[2]": {"assay": "Highest amount that dissolves in acetone", "assay_type": "physicochemical", "settings": "in 4 μl acetone", "procedure": "Higher doses to honey bees were not tested because 2 mg was the highest amount one can dissolve with 4 μl acetone."}}, "note": "Several values for one entry are separate records, joined by “and”; a condition that tells them apart may be missing. Identical values can stand only once. Like-named read-outs stand apart in the source and are kept apart here."}
{"compound": "CC(C)(C)[C@]1(O)CC2OC(=O)CC23C(=O)OC2OC(=O)[C@H](O)C231", "note": "(stereo partly shown) [Bilobalide]", "values": [{"measurement": "estimated LD50", "setting": "[1]", "value": ">3200", "unit": "ng/mite"}]}
{"compound": "CC1(C)C(C=C(Cl)Cl)C1C(=O)OC(C#N)c1ccc(F)c(Oc2ccccc2)c1", "note": "(stereo not shown) [Cyfluthrin, reference compound]", "values": [{"measurement": "Mean LD50", "setting": "[1]", "value": "0.63 ± 0.18", "unit": "ng/mite"}, {"measurement": "LD50 1", "setting": "[1]", "value": 0.46, "unit": "ng/mite"}, {"measurement": "LD50 2", "setting": "[1]", "value": 0.82, "unit": "ng/mite"}, {"measurement": "LD50 3", "setting": "[1]", "value": 0.60, "unit": "ng/mite"}]}
{"compound": "C[C@@H]1C(=O)O[C@H]2[C@H](O)[C@@]34[C@H]5C[C@@H](C(C)(C)C)[C@]36[C@@H](OC(=O)[C@@H]6O)O[C@@]4(C(=O)O5)[C@@]12O", "note": "[Ginkolide B]", "values": [{"measurement": "estimated LD50", "setting": "[1]", "value": ">3200", "unit": "ng/mite"}]}
{"compound": "C=C(C)[C@@H]1[C@H]2OC(=O)[C@@H]1[C@]1(O)C[C@H]3O[C@]34C(=O)O[C@H]2[C@]14C", "note": "[Picrotoxinin, picrotoxinin]", "values": [{"measurement": "24-hour dead bee", "setting": "bees; 0.005 ug/bee, 10 bees per dish", "value": 1}, {"measurement": "2-hour dead bee", "setting": "bees; 0.1 ug/bee, 10 bees per dish", "value": 1}, {"measurement": "4-hour dead bee", "setting": "bees; 0.1 ug/bee, 10 bees per dish", "value": 1}, {"measurement": "4-hour dead bee", "setting": "bees; 1 ug/bee, 10 bees per dish, # = dead perhaps due to leaked sugar syrup", "value": "1#"}, {"measurement": "24 hr dead bee", "setting": "bees; treatment 1 ug/ul", "value": 0}, {"measurement": "LD50 for this particular trial (FIG. 1)", "setting": "[1]; dose response of FIG. 1", "value": 22.61, "unit": "ng/mite"}, {"measurement": "susceptibility of Varroa mites to toxicity compared to honey bees", "setting": "[1]; mite LD50 versus highest bee dose", "value": "at least 100,000 fold"}, {"measurement": "Mean LD50", "setting": "[1]", "value": "20.16 ± 2.00", "unit": "ng/mite"}, {"measurement": "Mean LD50", "setting": "[1]; listed as picrotoxinin", "value": "20.16±2.00", "unit": "ng/mite"}, {"measurement": "LD50 1", "setting": "[1]", "value": 20.82, "unit": "ng/mite"}, {"measurement": "LD50 2", "setting": "[1]", "value": 22.61, "unit": "ng/mite"}, {"measurement": "LD50 3", "setting": "[1]", "value": 17.05, "unit": "ng/mite"}, {"measurement": "killing of honeybees at highest dose", "setting": "honey bees (foragers); 2,000,000 ng (2 mg) per bee in 4 μl acetone", "value": "failed to kill any honeybees"}, {"measurement": "LD50", "setting": "honey bees (foragers); topical to foragers, max dose 2000 ug/bee", "value": ">2000 (max dose ug/bee"}, {"measurement": "24-hour dead mite", "setting": "Varroa mites; 0.000005 ug/bee", "value": 1}, {"measurement": "4-hour dead mite", "setting": "Varroa mites; 0.00005 ug/bee", "value": 1}, {"measurement": "2-hour dead mite", "setting": "Varroa mites; 0.0005 ug/bee", "value": 1}, {"measurement": "4-hour dead mite", "setting": "Varroa mites; 0.0005 ug/bee", "value": 3}, {"measurement": "24-hour dead mite", "setting": "Varroa mites; 0.0005 ug/bee", "value": "3 and 2"}, {"measurement": "2-hour dead mite", "setting": "Varroa mites; 0.005 ug/bee", "value": 1}, {"measurement": "4-hour dead mite", "setting": "Varroa mites; 0.005 ug/bee", "value": 1}, {"measurement": "4-hour dead mite", "setting": "Varroa mites; 0.05 ug/bee", "value": "2 and 1"}, {"measurement": "24-hour dead mite", "setting": "Varroa mites; 0.05 ug/bee", "value": "5 and 3"}, {"measurement": "2-hour dead mite", "setting": "Varroa mites; 0.1 ug/bee", "value": 2}, {"measurement": "4-hour dead mite", "setting": "Varroa mites; 0.1 ug/bee", "value": "5 and 4"}, {"measurement": "24-hour dead mite", "setting": "Varroa mites; 0.1 ug/bee", "value": "6 and 9"}, {"measurement": "2-hour dead mite", "setting": "Varroa mites; 1 ug/bee", "value": "2 and 4"}, {"measurement": "4-hour dead mite", "setting": "Varroa mites; 1 ug/bee", "value": "4 and 5"}, {"measurement": "24-hour dead mite", "setting": "Varroa mites; 1 ug/bee", "value": "7 and 10"}, {"measurement": "24 hr dead mite", "setting": "Varroa mites; treatment 1 ug/ul", "value": "9 and 10"}, {"measurement": "24 hr dead mite", "setting": "Varroa mites; treatment 4 ug/ul", "value": 10}, {"measurement": "highest amount one can dissolve", "setting": "[2]", "value": 2, "unit": "mg"}]}
{"compound": "Ginkolide A", "values": [{"measurement": "Mean LD50", "setting": "[1]", "value": "535.52±450.90", "unit": "ng/mite"}, {"measurement": "LD50 1", "setting": "[1]", "value": 348.63, "unit": "ng/mite"}, {"measurement": "LD50 2", "setting": "[1]", "value": 1049.82, "unit": "ng/mite"}, {"measurement": "LD50 3", "setting": "[1]", "value": 208.10, "unit": "ng/mite"}]}
{"compound": "Ginkolide C", "values": [{"measurement": "estimated LD50", "setting": "[1]", "value": ">3200", "unit": "ng/mite"}]}
